Assay results published in ChEMBL document CHEMBL1141643, “Synthesis and SAR of novel 1,1-dialkyl-2(1H)-naphthalenones as potent HCV polymerase inhibitors” (Bioorg Med Chem Lett, 2008).

Assays:
[1] = Inhibition of HCV 1a RNA dependent RNA polymerase; set-up: species or system Hepacivirus hominis
Hepatitis C virus = experiment: Inhibition of HCV 1a replication by cell based assay; format: functional, organism-based, Hepacivirus hominis

| SMILES | IC50 [1] [nM] | EC50 (Hepatitis C virus) [nM] |
| --- | --- | --- |
| CCCC1(CCC)C(=O)C(C2=NS(=O)(=O)c3cc(NS(C)(=O)=O)ccc3N2)=C(O)c2ccccc21 | 99 | 603 |
| CC1(CC2CCCCC2)C(=O)C(C2=NS(=O)(=O)c3cc(NS(C)(=O)=O)ccc3N2)=C(O)c2ccccc21 (stereo not given) | 13 | 121 |
| CC(C)(C)CCC1(C)C(=O)C(C2=NS(=O)(=O)c3cc(NS(C)(=O)=O)ccc3N2)=C(O)c2ccccc21 (stereo not given) | 10 | 8 |
| CC1(CCCC2CCCCC2)C(=O)C(C2=NS(=O)(=O)c3cc(NS(C)(=O)=O)ccc3N2)=C(O)c2ccccc21 (stereo not given) | 791 | – |
| CC(C)(C)CCCCC1(C)C(=O)C(C2=NS(=O)(=O)c3cc(NS(C)(=O)=O)ccc3N2)=C(O)c2ccccc21 (stereo not given) | 138 | – |

The remaining lines, values ahead:

| IC50 [1] [nM] | EC50 (Hepatitis C virus) [nM] | SMILES |
| --- | --- | --- |
| 7 | 38 | CC(C)CCC1(C)C(=O)C(C2=NS(=O)(=O)c3cc(NS(C)(=O)=O)ccc3N2)=C(O)c2ccccc21 (stereo not given) |
| 20 | – | CCCC1(C)C(=O)C(C2=NS(=O)(=O)c3cc(NS(C)(=O)=O)ccc3N2)=C(O)c2ccccc21 (stereo not given) |
| 15 | 52 | CCCCC1(C)C(=O)C(C2=NS(=O)(=O)c3cc(NS(C)(=O)=O)ccc3N2)=C(O)c2ccccc21 (stereo not given) |
| 17 | 49 | CCC1(CCC(C)C)C(=O)C(C2=NS(=O)(=O)c3cc(NS(C)(=O)=O)ccc3N2)=C(O)c2ccccc21 (stereo not given) |
